In patent publication US9708244B2, “Coloring material and method for producing the same” (DAI NIPPON PRINTING CO., LTD., priority 2012, dated 2017):

How the values were obtained:
Assay type in all cases: physicochemical
[1] = Evaluation of thermal decomposition temperature (TG-DTA); settings: heating rate 5° C./min to 800° C., extrapolated temperature of TG curve peak
Protocol: As a reference, alumina was put in a quarts pan. Using horizontal differential thermogravimetric-differential thermal analyzer (TG-DTA) TG8120 (manufactured by Rigaku Corporation), they were measured at a heating rate of 5° C./min to 800° C. The extrapolated temperature of the peak of the thus-obtained TG curve was used as a decomposition point, and the temperature at the decomposition point was used as a thermal decomposition temperature. The thermal decomposition temperature can be used as an indicator of heat resistance.

[2] = Evaluation of weight reduction rate (TG-DTA, held at 230° C.); settings: heated to 230° C. at 20° C./min, kept 60 minutes
Protocol: As a reference, alumina was put in a quarts pan. Using differential thermogravimetric analyzer (TG-DTA) TG8120 (manufactured by Rigaku Corporation), they were heated to 230° C. at a heating rate of 20° C./min. From the time when they reached 230° C., they were kept at the same temperature for 60 minutes and then measured for the weight reduction rate. The weight reduction rate is calculated by the following formula and can be used as an indicator of heat resistance. Weight reduction rate=(“weight before heating”−“weight after heating”)/“weight before heating”×100(%) <Evaluation of Dyeing Property> (1) Fabric Dyeing

[3] = Evaluation of color change in color materials (absorption spectrum in methanol); settings: 10 mg in 100 mL methanol, diluted 20-fold, 1 cm cell, FIG. 1
Protocol: First, 10 mg of each of the color materials A and C obtained in Examples 1 and 3 was dissolved in 100 mL of methanol and diluted 20-fold, thereby obtaining a measurement solution. The absorption spectrum of the solution was measured by using a 1 cm quarts cell in spectrophotometer U-3500 manufactured by Hitachi, Ltd. Next, 10 mg of BB7 (monomer) was dissolved in 100 mL of methanol and diluted 20-fold, thereby obtaining a measurement solution as a control product. The absorption spectrum of the solution was measured by the same method as above.

SMILES | Thermal decomposition temperature [1] [°C] | Weight reduction rate (230° C. for 1 hr) [2] [%] | Color change versus BB7 (absorption spectrum peak form) [3]
CCN(CC)c1ccc(C(=C2C=CC(=[N+](CC)CC)C=C2)c2ccc(NCc3ccc(CNc4ccc(C(=C5C=CC(=[N+](CC)CC)C=C5)c5ccc(N(CC)CC)cc5)c5ccccc45)cc3)c3ccccc23)cc1.[Cl-].[Cl-] [Color material A] | 247 | −28.9 | almost no change in color
CCN(CC)c1ccc(C(=C2C=CC(=[N+](CC)CC)C=C2)c2ccc(NCc3ccc(CNc4ccc(C(=C5C=CC(=[N+](CC)CC)C=C5)c5ccc(N(CC)CC)cc5)c5ccccc45)cc3)c3ccccc23)cc1 [Color material B] | 255 | −29.1 | –
CCNc1ccc(C(=C2C=CC(=[N+](CC)CC)C=C2)c2ccc(N(CC)CC)cc2)c2ccccc12.[Cl-] [Color material D, Basic Blue 7 (CI-42595)] | 218 | −40.2 | –

Second part, the compound after the results:

Thermal decomposition temperature [1] [°C] | Weight reduction rate (230° C. for 1 hr) [2] [%] | Color change versus BB7 (absorption spectrum peak form) [3] | SMILES
245 | −38.3 | – | CCNc1ccc(C(=C2C=CC(=[N+](CC)CC)C=C2)c2ccc(N(CC)CC)cc2)c2ccccc12.Cc1ccc(S(=O)(=O)[O-])cc1 [Color material E]
236 | −33.8 | – | CCNc1ccc(C(=C2C=CC(=[N+](CC)CC)C=C2)c2ccc(N(CC)CC)cc2)c2ccccc12 [Color material F]
